The results in this text go back to BindingDB's records for patent US11896597 (Dizal (Jiangsu) Pharmaceutical, 2024).

SMILES strings stand for the structures.

The target of experiment [1] is Epidermal growth factor receptor [T790M,L858R] (Homo sapiens, UniProt P00533, L858R/T790M). Description: Potency Assessment EGFR (WT) and EGFR Mutants.
Procedure: (§1) The next day, tested compounds at a series of concentrations were added into each individual well of the plates, and the plates were incubated for 4 h at 37 C. with 5% CO2. […] The assay is an electrochemiluminescent method for determining both phosphorylated and total EGFR of cells with an MSD SECTOR Imager and the ratio of p-EGFR/total EGFR can be generated by the machine. The Her2 (Y1248) phosphorylation level (activity) of cells in each well were measured with MSD Kit named Phospho-ErbB2 (Tyr1248) Assay Whole Cell Lysate Kit according to the manufacturer's instruction (MESO SCALE DISCOVERY, Cat #K151CLD-3). The assay is an electrochemiluminescent method (MESO SCALE DISCOVERY) for determining both phosphorylated and total Her2 of cells with an MSD SECTOR Imager and then the ratio of p-Her2/total Her2 can be generated by the machine.
The target in experiment [2] is Epidermal growth factor receptor (Homo sapiens, UniProt P00533). Nature of the experiment: Potency Assessment EGFR (WT) and EGFR Mutants.
Procedure: as §1

One may read the IC50 as the midpoint of a concentration-inhibition curve. Read a high IC50 as lower potency.

Epidermal growth factor receptor [T790M,L858R], sequence (P00533 25-1210 T790M/L858R limits assumed): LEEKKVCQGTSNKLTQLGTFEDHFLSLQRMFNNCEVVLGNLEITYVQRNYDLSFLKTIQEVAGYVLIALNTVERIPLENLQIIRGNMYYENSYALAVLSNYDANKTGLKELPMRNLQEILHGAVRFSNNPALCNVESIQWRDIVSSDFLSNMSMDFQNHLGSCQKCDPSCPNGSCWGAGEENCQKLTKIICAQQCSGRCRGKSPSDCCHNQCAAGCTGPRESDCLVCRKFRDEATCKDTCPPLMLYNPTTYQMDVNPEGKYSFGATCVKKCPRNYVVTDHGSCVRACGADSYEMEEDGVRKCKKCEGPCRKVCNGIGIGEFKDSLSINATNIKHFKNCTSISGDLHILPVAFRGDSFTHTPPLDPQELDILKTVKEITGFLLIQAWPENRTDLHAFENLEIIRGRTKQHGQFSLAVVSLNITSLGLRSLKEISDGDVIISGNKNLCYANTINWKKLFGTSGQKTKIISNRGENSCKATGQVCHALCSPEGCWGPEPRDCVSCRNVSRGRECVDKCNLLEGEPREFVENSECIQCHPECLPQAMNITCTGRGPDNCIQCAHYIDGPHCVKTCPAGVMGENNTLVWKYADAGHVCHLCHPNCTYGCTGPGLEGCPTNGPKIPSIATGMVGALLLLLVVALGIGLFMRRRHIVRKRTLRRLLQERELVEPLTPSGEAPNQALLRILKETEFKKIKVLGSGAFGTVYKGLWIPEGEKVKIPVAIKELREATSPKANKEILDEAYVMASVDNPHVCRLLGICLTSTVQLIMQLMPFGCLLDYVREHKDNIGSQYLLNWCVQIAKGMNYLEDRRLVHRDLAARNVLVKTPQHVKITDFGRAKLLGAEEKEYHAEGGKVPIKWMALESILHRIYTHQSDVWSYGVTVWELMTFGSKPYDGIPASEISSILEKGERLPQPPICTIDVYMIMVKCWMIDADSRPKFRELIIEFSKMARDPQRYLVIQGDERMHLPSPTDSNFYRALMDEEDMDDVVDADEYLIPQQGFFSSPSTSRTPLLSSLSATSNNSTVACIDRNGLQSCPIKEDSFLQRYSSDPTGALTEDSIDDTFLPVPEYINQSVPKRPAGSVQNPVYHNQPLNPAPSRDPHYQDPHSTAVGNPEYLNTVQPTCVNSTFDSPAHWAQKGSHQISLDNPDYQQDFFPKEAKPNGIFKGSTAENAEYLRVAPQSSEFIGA
Epidermal growth factor receptor, sequence (P00533 whole entry): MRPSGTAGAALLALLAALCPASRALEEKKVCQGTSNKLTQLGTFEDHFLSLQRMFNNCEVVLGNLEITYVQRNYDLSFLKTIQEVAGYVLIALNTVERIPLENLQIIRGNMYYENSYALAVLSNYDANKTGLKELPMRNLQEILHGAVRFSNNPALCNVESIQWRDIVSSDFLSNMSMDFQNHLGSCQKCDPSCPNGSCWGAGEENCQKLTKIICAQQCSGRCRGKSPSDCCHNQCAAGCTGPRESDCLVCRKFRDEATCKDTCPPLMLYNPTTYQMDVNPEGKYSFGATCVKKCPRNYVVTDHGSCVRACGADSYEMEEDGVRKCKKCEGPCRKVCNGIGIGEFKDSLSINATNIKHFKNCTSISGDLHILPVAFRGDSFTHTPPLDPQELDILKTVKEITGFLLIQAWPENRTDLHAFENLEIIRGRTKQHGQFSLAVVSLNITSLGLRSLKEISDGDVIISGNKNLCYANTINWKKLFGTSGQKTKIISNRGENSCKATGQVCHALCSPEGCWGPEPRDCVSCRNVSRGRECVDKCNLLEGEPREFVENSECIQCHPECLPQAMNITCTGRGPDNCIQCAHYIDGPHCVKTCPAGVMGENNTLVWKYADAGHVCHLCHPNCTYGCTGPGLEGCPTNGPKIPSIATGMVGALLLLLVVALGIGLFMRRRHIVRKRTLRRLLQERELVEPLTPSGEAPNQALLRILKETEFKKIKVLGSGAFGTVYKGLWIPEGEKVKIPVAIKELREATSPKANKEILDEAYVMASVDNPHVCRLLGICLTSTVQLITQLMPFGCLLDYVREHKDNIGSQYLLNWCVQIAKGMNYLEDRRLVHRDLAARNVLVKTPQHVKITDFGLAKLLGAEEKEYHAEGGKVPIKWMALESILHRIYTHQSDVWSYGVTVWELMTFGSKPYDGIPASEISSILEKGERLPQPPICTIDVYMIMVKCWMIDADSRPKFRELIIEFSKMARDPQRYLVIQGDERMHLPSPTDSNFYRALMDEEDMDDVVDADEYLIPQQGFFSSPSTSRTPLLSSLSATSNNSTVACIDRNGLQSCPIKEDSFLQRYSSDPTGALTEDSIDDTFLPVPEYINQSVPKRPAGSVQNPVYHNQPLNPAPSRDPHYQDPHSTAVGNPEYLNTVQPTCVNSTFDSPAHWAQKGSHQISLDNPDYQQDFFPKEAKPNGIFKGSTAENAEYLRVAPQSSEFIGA

Consider `C=CC(=O)Nc1cc(Nc2ncnc(Nc3cnc(C)cc3C(C)(C)O)n2)c(OC)cc1N(C)CCN(C)C` [US11896597, Compound 6], for which the IC50 in experiment [1] was found to be 8.4 nM; in experiment [2], 103 nM.

For the molecule `C=CC(=O)Nc1cc(Nc2ncnc(Nc3ccc(C)nc3C(C)(C)O)n2)c(OC)cc1N(C)CCN(C)C` [US11896597, Compound 7], the IC50 in experiment [1] worked out at 1.7 nM; in experiment [2] it was 88.1 nM.

On to `C=CC(=O)Nc1cc(Nc2ncnc(Nc3ccccc3C3(O)COC3)n2)c(OC)cc1N(C)CCN(C)C` [US11896597, Compound 10], for which the IC50 in experiment [1] stood at 2.6 nM; in experiment [2], 62.6 nM.

In the case of `C=CC(=O)Nc1cc(Nc2ncnc(Nc3ccc(C(F)(F)F)cc3C(C)(C)O)n2)c(OC)cc1N(C)CCN(C)C` [US11896597, Compound 13], the IC50 in experiment [1] was determined as 1.1 nM; in experiment [2], 20.6 nM.

Consider `C=CC(=O)Nc1cc(Nc2ncnc(Nc3cc(F)c(F)cc3C(C)(C)O)n2)c(OC)cc1N(C)CCN1CCCCC1` [US11896597, Compound 24], for which the IC50 is 1 nM in experiment [1] and 104 nM in experiment [2].

For `C=CC(=O)Nc1cc(Nc2nccc(Nc3cc(Cl)c(F)cc3C(C)(C)O)n2)c(OC)cc1N(C)C[C@H]1C[C@H](C)CN1C` [US11896597, Compound 90], the IC50 came out at 1.4 nM in experiment [1] and 357 nM in experiment [2].
